# Legend:
# Assay type in all cases: biochemical
# [1] = test system: cell fractions of Methylomonas sp. (CRL-17, NRRL B-11,208); experiment: Oxidation by cell fractions P(40), P(80), S(80); conditions: propylene to propylene oxide, methane to methanol, 30° C.
# How it was run: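 Cells washed and French-press disrupted in 25 mM K phosphate pH 7.0 with 5 mM MgCl2; particulate P(40), P(80) and soluble S(80) fractions from 40,000×g and 80,000×g spins. Methane or propylene (1:1 with O2) oxidised at 30° C with NADH; methanol/propylene oxide by GC; activity as μmoles product/h/mg protein.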
# [2] = test system: P(40) particulate fraction of Methylosinus sp. (CRL-15, NRRL B-11,202); experiment: Substrate competition: effect of methane on propylene epoxidation; conditions: 30° C.
# Protocol: The oxidation of methane and propylene by particulate [(P)40 and (P)80] fractions and soluble [S(80)] fraction was measured at 30° C. by estimating the production of methanol and propylene oxide, respectively. The reaction mixtures contained in […]: 150 mM potassium phosphate buffer, pH 7.0 containing 5 mM MgCl2 b, 0.6 ml; 10μ moles NADH, and cellular fraction.
# Reaction mixtures were contained in 10 ml vials at 4° C. Vials were sealed with rubber caps. The gaseous phase in the vials was removed using vacuum and then was replaced with a gas mixture of methane or propylene and oxygen at a 1:1, v/v ratio. Oxidation of other gaseous n-alkanes and n-alkanes was examined as described above. For liquid substrates, 10 μl of substrate was used directly.
# The hydroxylation of methane and the epoxidation of propylene by particulate fractions of methane-utilizing bacteria required oxygen and NADH. The question of whether the same or a similar enzyme was involved in the oxidation of both substrates was examined by substrate competition experiments. The experiment consisted of determining the effect of methane on the oxidation of propylene to propylene oxide by the P(40) particulate fraction of Methylosinus sp. (CRL-15, NRRL B-11,202).
# [3] = target: T1, cell-free fractions of Methylococcus capsulatus (CRL M1, NRRL B-11,219) (Methylococcus capsulatus, UniProt G1UBD1+Q603F1+Q607G3); experiment: Epoxidation and hydroxylation activities in cell-free fractions
# T1 sequence (G1UBD1 33-414): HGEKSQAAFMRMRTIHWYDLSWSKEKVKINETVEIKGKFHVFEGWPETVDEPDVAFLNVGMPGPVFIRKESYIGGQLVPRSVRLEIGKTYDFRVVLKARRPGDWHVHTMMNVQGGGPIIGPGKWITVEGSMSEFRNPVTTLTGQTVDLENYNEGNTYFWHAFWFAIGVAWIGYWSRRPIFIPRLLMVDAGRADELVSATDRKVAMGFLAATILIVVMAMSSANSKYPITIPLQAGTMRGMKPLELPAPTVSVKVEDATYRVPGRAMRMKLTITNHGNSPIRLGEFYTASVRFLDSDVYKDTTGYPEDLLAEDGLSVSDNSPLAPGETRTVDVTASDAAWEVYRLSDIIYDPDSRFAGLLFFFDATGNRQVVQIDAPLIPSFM
# T1 sequence (Q607G3 1-247): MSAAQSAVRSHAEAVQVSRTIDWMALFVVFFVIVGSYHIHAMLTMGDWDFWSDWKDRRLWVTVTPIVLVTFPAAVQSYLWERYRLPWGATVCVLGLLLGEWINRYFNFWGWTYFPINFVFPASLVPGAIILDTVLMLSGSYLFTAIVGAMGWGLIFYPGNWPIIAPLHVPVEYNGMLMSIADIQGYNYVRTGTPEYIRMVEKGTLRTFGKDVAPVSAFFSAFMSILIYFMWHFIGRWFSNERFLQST
# T1 sequence (Q603F1 1-260): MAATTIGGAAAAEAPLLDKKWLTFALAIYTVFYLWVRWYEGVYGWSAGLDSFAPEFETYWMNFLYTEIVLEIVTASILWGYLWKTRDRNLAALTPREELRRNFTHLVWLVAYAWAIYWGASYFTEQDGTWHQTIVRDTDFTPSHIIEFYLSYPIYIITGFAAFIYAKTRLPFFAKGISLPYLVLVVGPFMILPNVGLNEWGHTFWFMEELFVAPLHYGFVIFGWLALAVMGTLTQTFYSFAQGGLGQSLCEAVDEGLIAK
# Protocol: Cells of methane-grown Methylococcus capsulatus (CRL M1, NRRL B-11,219) were obtained by the method of Example 1. […] However, when the cells were disrupted by passing twice through a French pressure cell (1000 Kg. pressure), both activities were found in the crude extract after 10,000×g. centrifugation. All of the activity in the crude extract was collected as a particulate fraction by further centrifugation of the crude extract at 40,000×g. for 90 min. at 4° C.
# ^a The cells were disrupted by French Press as described above. NADH
# […] was added into the reaction mixture where indicated.
# The amount of protein in the particulate fraction and the 40,000 ×
# g. supernatant fraction used was 1 mg. and 2.5 mg., respectively. Each
# assay contained 0.5 ml. reaction mixture.
# [4] = particulate fraction (10,000 × g.-40,000 × g.), 1 mg. protein
# [5] = supernatant fraction of 40,000 × g., 2.5 mg. protein
Structure (SMILES),Oxidizing Activity (rate of oxidation) in cell fraction ([1]; P(40)),Oxidizing Activity (rate of oxidation) in cell fraction ([1]; P(80)),Oxidizing Activity (rate of oxidation) in cell fraction ([1]; S(80)),Propylene Oxide Produced [2],"Oxidation Rate [3, 4]",Oxidation Rate ([3]; particulate fraction + NADH),Oxidation Rate ([3]; supernatant fraction + NADH),"Oxidation Rate [3, 5]"
C [Methane],2.9 μ moles of products formed per,2.7 μ moles of products formed per,0 μ moles of products formed per,0 μmoles/hr./mg. protein,500 nmoles/30 min/assay,650 nmoles/30 min/assay,0 nmoles/30 min/assay,0 nmoles/30 min/assay
C=CC [Propylene],2.2 μ moles of products formed per,2.0 μ moles of products formed per,0 μ moles of products formed per,4.3 μmoles/hr./mg. protein,750 nmoles/30 min/assay,900 nmoles/30 min/assay,0 nmoles/30 min/assay,0 nmoles/30 min/assay
